Source: ChEMBL document CHEMBL1212752, “Efficacy of posaconazole in a murine disseminated infection by Candida tropicalis” (2010)
≈ marks a conversion by molar mass, not a printed value. Calls of active or inactive are those of the source. The calls are words filed in the database; no cut-off is given here.

Experiments:
[1] = system: Candida tropicalis; assay: Antifungal activity against Candida tropicalis FMR 8898 assessed as inhibition of growth by broth dilution method; format: functional
[2] = system: Candida tropicalis; assay: Antifungal activity against Candida tropicalis FMR 9726 infected in immunosuppressed OF1 mouse assessed as reduction in fungal tissue burden in mouse kidney at 50 mg/kg, po qd for 5 days; format: functional, organism-based; parameters: dose 50 mg/kg
[3] = system: Candida tropicalis; assay: Antifungal activity against Candida tropicalis FMR 10237 infected in immunosuppressed OF1 mouse assessed as reduction in fungal tissue burden in mouse kidney at 25 mg/kg, po bid for 5 days; format: functional, organism-based; parameters: dose 25 mg/kg
[4] = system: Candida tropicalis; assay: Antifungal activity against Candida tropicalis FMR 10235 assessed as inhibition of growth by broth dilution method; format: functional
[5] = system: Candida tropicalis; assay: Antifungal activity against Candida tropicalis FMR 10231 assessed as inhibition of growth by broth dilution method; format: functional
[6] = system: Candida tropicalis; assay: Antifungal activity against Candida tropicalis FMR 8896 assessed as inhibition of growth by broth dilution method; format: functional
[7] = system: Candida tropicalis; assay: Antifungal activity against Candida tropicalis FMR 10333 assessed as inhibition of growth by broth dilution method; format: functional
[8] = system: Candida tropicalis; assay: Antifungal activity against Candida tropicalis FMR 10237 infected in immunosuppressed OF1 mouse assessed as reduction in fungal tissue burden in mouse spleen at 25 mg/kg, po bid for 5 days; format: functional, organism-based; parameters: dose 25 mg/kg
[9] = system: Candida tropicalis; assay: Antifungal activity against Candida tropicalis FMR 9726 infected in immunosuppressed OF1 mouse assessed as prolongation of mouse survival at 25 mg/kg, po bid for 5 days; format: functional, organism-based; parameters: dose 25 mg/kg
[10] = system: Candida tropicalis; assay: Antifungal activity against Candida tropicalis FMR 9726 assessed as inhibition of growth by broth dilution method; format: functional
[11] = system: Candida tropicalis; assay: Antifungal activity against Candida tropicalis FMR 8896 assessed as compound concentration causing =>99% reduction in microbial growth; format: functional
[12] = system: Candida tropicalis; assay: Antifungal activity against Candida tropicalis FMR 9727 assessed as inhibition of growth by broth dilution method; format: functional
[13] = system: Candida tropicalis; assay: Antifungal activity against Candida tropicalis FMR 10238 assessed as compound concentration causing =>99% reduction in microbial growth; format: functional
[14] = system: Candida tropicalis; assay: Antifungal activity against Candida tropicalis FMR 10239 infected in immunosuppressed OF1 mouse assessed as reduction in fungal tissue burden in mouse spleen at 50 mg/kg, po qd for 5 days; format: functional, organism-based; parameters: dose 50 mg/kg
[15] = system: Candida tropicalis; assay: Antifungal activity against Candida tropicalis FMR 10240 assessed as inhibition of growth by broth dilution method; format: functional
[16] = system: Candida tropicalis; assay: Antifungal activity against Candida tropicalis FMR 10333 assessed as compound concentration causing =>99% reduction in microbial growth; format: functional
[17] = system: Candida tropicalis; assay: Antifungal activity against Candida tropicalis FMR 9727 infected in immunosuppressed OF1 mouse assessed as prolongation of mouse survival at 25 mg/kg, po bid for 5 days; format: functional, organism-based; parameters: dose 25 mg/kg
[18] = system: Candida tropicalis; assay: Antifungal activity against Candida tropicalis FMR 10236 assessed as inhibition of growth by broth dilution method; format: functional
[19] = system: Candida tropicalis; assay: Antifungal activity against Candida tropicalis FMR 8895 infected in immunosuppressed OF1 mouse assessed as reduction in fungal tissue burden in mouse spleen at 25 mg/kg, po bid for 5 days; format: functional, organism-based; parameters: dose 25 mg/kg
[20] = system: Candida tropicalis; assay: Antifungal activity against Candida tropicalis FMR 10239 assessed as compound concentration causing =>99% reduction in microbial growth; format: functional
[21] = system: Candida tropicalis; assay: Antifungal activity against Candida tropicalis FMR 9726 infected in immunosuppressed OF1 mouse assessed as prolongation of mouse survival at 50 mg/kg, po qd for 5 days; format: functional, organism-based; parameters: dose 50 mg/kg
[22] = system: Candida tropicalis; assay: Antifungal activity against Candida tropicalis FMR 9726 infected in immunosuppressed OF1 mouse assessed as reduction in fungal tissue burden in mouse kidney at 25 mg/kg, po bid for 5 days; format: functional, organism-based; parameters: dose 25 mg/kg
[23] = system: Candida tropicalis; assay: Antifungal activity against Candida tropicalis FMR 10237 infected in immunosuppressed OF1 mouse assessed as reduction in fungal tissue burden in mouse spleen at 50 mg/kg, po qd for 5 days; format: functional, organism-based; parameters: dose 50 mg/kg
[24] = system: Candida tropicalis; assay: Antifungal activity against Candida tropicalis FMR 10238 assessed as inhibition of growth by broth dilution method; format: functional
[25] = system: Candida tropicalis; assay: Antifungal activity against Candida tropicalis FMR 8895 infected in immunosuppressed OF1 mouse assessed as reduction in fungal tissue burden in mouse kidney at 25 mg/kg, po bid for 5 days; format: functional, organism-based; parameters: dose 25 mg/kg
[26] = system: Candida tropicalis; assay: Antifungal activity against Candida tropicalis FMR 9726 infected in immunosuppressed OF1 mouse assessed as reduction in fungal tissue burden in mouse spleen at 25 mg/kg, po bid for 5 days; format: functional, organism-based; parameters: dose 25 mg/kg
[27] = system: Candida tropicalis; assay: Antifungal activity against Candida tropicalis FMR 10234 assessed as inhibition of growth by broth dilution method; format: functional
[28] = system: Candida tropicalis; assay: Antifungal activity against Candida tropicalis FMR 10241 assessed as compound concentration causing =>99% reduction in microbial growth; format: functional
[29] = system: Candida tropicalis; assay: Antifungal activity against Candida tropicalis FMR 9727 assessed as compound concentration causing =>99% reduction in microbial growth; format: functional
[30] = system: Candida tropicalis; assay: Antifungal activity against Candida tropicalis FMR 10239 infected in immunosuppressed OF1 mouse assessed as reduction in fungal tissue burden in mouse spleen at 25 mg/kg, po bid for 5 days; format: functional, organism-based; parameters: dose 25 mg/kg
[31] = system: Candida tropicalis; assay: Antifungal activity against Candida tropicalis FMR 8895 assessed as compound concentration causing =>99% reduction in microbial growth; format: functional
[32] = system: Candida tropicalis; assay: Antifungal activity against Candida tropicalis FMR 9726 assessed as compound concentration causing =>99% reduction in microbial growth; format: functional

## CC[C@@H]([C@H](C)O)n1ncn(-c2ccc(N3CCN(c4ccc(OC[C@@H]5CO[C@@](Cn6cncn6)(c6ccc(F)cc6F)C5)cc4)CC3)cc2)c1=O [POSACONAZOLE]
[1]
  MIC50: 0.125 µg/mL (≈ 0.178 µM)
[2]
  Activity: Active
[3]
  Activity: Active
[4]
  MIC50: 0.125 µg/mL (≈ 0.178 µM)
[5]
  MIC50: 0.06 µg/mL (≈ 0.0856 µM)
[6]
  MIC50: 0.125 µg/mL (≈ 0.178 µM)
[7]
  MIC50: 0.06 µg/mL (≈ 0.0856 µM)
[8]
  Activity: Active
[9]
  Activity: Active
[10]
  MIC50: 0.5 µg/mL (≈ 0.713 µM)
[11]
  MFC: > 16 µg/mL
[12]
  MIC50: < 0.03 µg/mL
[13]
  MFC: > 16 µg/mL
[14]
  Activity: Active
[15]
  MIC50: < 0.03 µg/mL
[16]
  MFC: > 16 µg/mL
[17]
  Activity: Active
[18]
  MIC50: 0.06 µg/mL (≈ 0.0856 µM)
[19]
  Activity: inactive
[20]
  MFC: 1 µg/mL (≈ 1.43 µM)
[21]
  Activity: Active
[22]
  Activity: Active
[23]
  Activity: Active
[24]
  MIC50: 0.06 µg/mL (≈ 0.0856 µM)
[25]
  Activity: inactive
[26]
  Activity: Active
[27]
  MIC50: 0.06 µg/mL (≈ 0.0856 µM)
[28]
  MFC: > 16 µg/mL
[29]
  MFC: > 16 µg/mL
[30]
  Activity: Active
[31]
  MFC: > 16 µg/mL
[32]
  MFC: > 16 µg/mL
